Experimental data from publication PMC8159961, “Exploring protein hotspots by optimized fragment pharmacophores” (Nature Communications, 2021).
Where two headings read alike, the source gives them in different places.

Assays:
human 5-HT7b receptor = biological target: T1, human 5-HT7b receptor (Homo sapiens, UniProt P34969); assay: GPCR radioligand binding assay, [3H]-5-CT displacement, HEK293 membranes
T1 construct: expressed in transfected cells

human 5-HT1A receptor = biological target: T2, human 5-HT1A receptor (Homo sapiens, UniProt P08908); assay: GPCR radioligand binding assay, [3H]-8-OH-DPAT displacement, HEK293 membranes
T2 construct: expressed in transfected cells
T2 sequence (P08908 1-422): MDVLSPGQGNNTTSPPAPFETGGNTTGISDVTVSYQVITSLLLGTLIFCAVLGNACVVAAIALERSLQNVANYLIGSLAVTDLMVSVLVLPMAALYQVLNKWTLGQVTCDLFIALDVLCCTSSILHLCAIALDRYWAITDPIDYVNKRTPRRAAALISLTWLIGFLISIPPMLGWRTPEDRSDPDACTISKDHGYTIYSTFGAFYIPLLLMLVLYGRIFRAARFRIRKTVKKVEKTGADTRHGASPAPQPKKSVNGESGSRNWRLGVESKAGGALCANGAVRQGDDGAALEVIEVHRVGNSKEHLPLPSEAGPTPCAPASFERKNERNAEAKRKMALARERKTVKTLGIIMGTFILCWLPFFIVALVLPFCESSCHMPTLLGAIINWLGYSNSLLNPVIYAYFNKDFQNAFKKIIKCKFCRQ

bovine factor Xa = biological target: T3, bovine factor Xa (Bos taurus, UniProt P00743); assay: Protease inhibitory assay, chromogenic substrate S-2222; type: biochemical
T3 construct: bovine factor Xa, Chromogenix, 2 nkat/mL; purchased Chromogenix

human 5-HT6 receptor = biological target: T4, human 5-HT6 receptor (Homo sapiens, UniProt P50406); assay: GPCR radioligand binding assay, [3H]-LSD displacement, HEK293 membranes
T4 construct: expressed in transfected cells

human thrombin = biological target: T5, human thrombin (Homo sapiens, UniProt P00734); assay: Protease inhibitory assay, chromogenic substrate S-2238; type: biochemical; conditions: plate layout, label = plate position; Cheng-Prusoff, Km 2.6 µM; read-out: Thrombin Ki
T5 construct: human thrombin; purchased Sigma-Aldrich

[1] = 10 µM, read-out: 5-HT7 % Inhibition by plate position
[2] = 5-HT7, average of exp_1 and exp_2, read-out: %inh 5-HT7 average
[3] = 5-HT7, average, values below 0 and above 100% were set as 0 and 100, read-out: %inh 5-HT7 corrected*
[4] = 5-HT7, replicate exp_1, read-out: %inh 5-HT7 exp_1
[5] = 5-HT7, replicate exp_2, read-out: %inh 5-HT7 exp_2
[6] = 10 µM, read-out: 5-HT1A % Inhibition by plate position
[7] = 5-HT1A, average of exp_1 and exp_2, read-out: %inh 5-HT1A average
[8] = 5-HT1A, average, values below 0 and above 100% were set as 0 and 100, read-out: %inh 5-HT1A corrected*
[9] = 5-HT1A, replicate exp_1, read-out: %inh 5-HT1A exp_1
[10] = 5-HT1A, replicate exp_2, read-out: %inh 5-HT1A exp_2
[11] = plate layout, label = plate position, Cheng-Prusoff, Km 164 µM, read-out: Factor Xa Ki
[12] = 10 µM, read-out: 5-HT6 % Inhibition by plate position
[13] = 5-HT6, average of exp_1 and exp_2, read-out: %inh 5-HT6 average
[14] = 5-HT6, average, values below 0 and above 100% were set as 0 and 100, read-out: %inh 5-HT6 corrected*
[15] = 5-HT6, replicate exp_1, read-out: %inh 5-HT6 exp_1
[16] = 5-HT6, replicate exp_2, read-out: %inh 5-HT6 exp_2
[17] = 5-HT1A, average of exp_1 and exp_2
[18] = 5-HT1A, average, values below 0 and above 100% were set as 0 and 100
[19] = 5-HT6, average of exp_1 and exp_2
[20] = 5-HT6, average, values below 0 and above 100% were set as 0 and 100
[21] = 5-HT7, average of exp_1 and exp_2

T1 sequence (P34969 1-432): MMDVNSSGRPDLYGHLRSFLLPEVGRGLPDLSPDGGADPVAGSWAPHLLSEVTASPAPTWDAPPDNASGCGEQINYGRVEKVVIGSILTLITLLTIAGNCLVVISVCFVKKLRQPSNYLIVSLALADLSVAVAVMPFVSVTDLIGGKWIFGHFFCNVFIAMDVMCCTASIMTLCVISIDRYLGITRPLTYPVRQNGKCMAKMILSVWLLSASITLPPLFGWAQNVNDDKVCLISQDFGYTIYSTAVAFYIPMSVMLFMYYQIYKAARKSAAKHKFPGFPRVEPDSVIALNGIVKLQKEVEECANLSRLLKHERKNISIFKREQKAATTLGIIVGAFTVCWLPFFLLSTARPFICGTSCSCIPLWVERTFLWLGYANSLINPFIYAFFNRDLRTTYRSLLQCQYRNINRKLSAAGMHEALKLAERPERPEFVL
T4 sequence (P50406 whole entry): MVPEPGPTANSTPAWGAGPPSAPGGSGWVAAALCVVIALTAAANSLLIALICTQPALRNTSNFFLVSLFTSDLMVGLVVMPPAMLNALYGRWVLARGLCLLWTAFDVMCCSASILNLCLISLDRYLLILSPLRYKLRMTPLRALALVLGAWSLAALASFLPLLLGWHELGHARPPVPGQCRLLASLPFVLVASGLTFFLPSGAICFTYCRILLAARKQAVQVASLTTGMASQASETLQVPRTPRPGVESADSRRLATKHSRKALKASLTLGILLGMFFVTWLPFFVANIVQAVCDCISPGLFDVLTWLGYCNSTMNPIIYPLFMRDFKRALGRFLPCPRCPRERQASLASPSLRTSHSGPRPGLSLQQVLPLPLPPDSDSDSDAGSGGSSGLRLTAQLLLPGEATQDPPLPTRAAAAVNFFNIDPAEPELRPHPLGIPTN
T3 sequence (P00743 234-492 limits assumed): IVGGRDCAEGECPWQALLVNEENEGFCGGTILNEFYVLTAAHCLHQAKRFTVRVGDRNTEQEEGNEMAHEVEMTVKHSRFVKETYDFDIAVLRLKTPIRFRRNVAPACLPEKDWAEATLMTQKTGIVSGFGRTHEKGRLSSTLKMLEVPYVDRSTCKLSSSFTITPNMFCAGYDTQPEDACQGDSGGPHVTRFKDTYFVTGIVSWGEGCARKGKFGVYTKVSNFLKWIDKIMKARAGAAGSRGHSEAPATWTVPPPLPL
T3 sequence (P00743 41-180 partner limits assumed): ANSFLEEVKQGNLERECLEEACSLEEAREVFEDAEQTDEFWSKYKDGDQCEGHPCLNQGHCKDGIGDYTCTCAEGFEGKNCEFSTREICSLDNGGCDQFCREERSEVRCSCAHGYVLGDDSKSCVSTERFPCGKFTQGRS

Structure (SMILES) | inhibition at 10 µM (human 5-HT7b receptor; [1]) [%] | inhibition at 10 µM (human 5-HT7b receptor; [2]) [%] | inhibition at 10 µM (human 5-HT7b receptor; [3]) [%] | inhibition at 10 µM (human 5-HT7b receptor; [4]) [%] | inhibition at 10 µM (human 5-HT7b receptor; [5]) [%] | inhibition at 10 µM (human 5-HT1A receptor; [6]) [%] | inhibition at 10 µM (human 5-HT1A receptor; [7]) [%] | inhibition at 10 µM (human 5-HT1A receptor; [8]) [%] | inhibition at 10 µM (human 5-HT1A receptor; [9]) [%] | inhibition at 10 µM (human 5-HT1A receptor; [10]) [%] | inhibition at 10 µM (human 5-HT6 receptor; [12]) [%] | inhibition at 10 µM (human 5-HT6 receptor; [13]) [%] | inhibition at 10 µM (human 5-HT6 receptor; [14]) [%] | inhibition at 10 µM (human 5-HT6 receptor; [15]) [%] | inhibition at 10 µM (human 5-HT6 receptor; [16]) [%] | 5-HT7 % Inhibition by plate position (human 5-HT7b receptor; 10 µM) [%] | %inh 5-HT7 exp_1 (human 5-HT7b receptor; 5-HT7, replicate exp_1) [%] | %inh 5-HT7 exp_2 (human 5-HT7b receptor; 5-HT7, replicate exp_2) [%] | %inh 5-HT1A average (human 5-HT1A receptor; [17]) [%] | %inh 5-HT1A exp_1 (human 5-HT1A receptor; 5-HT1A, replicate exp_1) [%] | other results
Cn1c(N)nc2ccccc21 [A6] | 0 | -10 | 0 | -3 | -18 | 0 | -7 | 0 | -18 | 3 | 25 | 25 | 25 | 22 | 29 | – | – | – | – | – | Ki (bovine factor Xa; [11]): 277 µM
Oc1ccccc1N1CCCCC1 [A12] | 0 | -0.0781 | 0 | -4.73 | 4.58 | 0 | -10 | 0 | 3.37 | -23 | 55 | 55 | 55 | 69 | 42 | – | – | – | – | – | Ki (bovine factor Xa; [11]): 611 µM
COc1ccccc1CC1CCNCC1 [B12] | – | – | – | – | – | – | – | – | – | – | – | – | – | – | – | – | – | – | – | – | inhibition at 10 µM (human 5-HT7b receptor; read-out: 5-HT7 % Inhibition by plate position): 54%; inhibition at 10 µM (human 5-HT7b receptor; read-out: %inh 5-HT7 average): 54%; inhibition at 10 µM (human 5-HT7b receptor; read-out: %inh 5-HT7 corrected*): 54%; inhibition at 10 µM (human 5-HT7b receptor; read-out: %inh 5-HT7 exp_1): 45%; inhibition at 10 µM (human 5-HT7b receptor; read-out: %inh 5-HT7 exp_2): 63%; inhibition at 10 µM (human 5-HT1A receptor; read-out: 5-HT1A % Inhibition by plate position): 50%; inhibition at 10 µM (human 5-HT1A receptor; read-out: %inh 5-HT1A average): 50%; inhibition at 10 µM (human 5-HT1A receptor; read-out: %inh 5-HT1A corrected*): 50%; inhibition at 10 µM (human 5-HT1A receptor; read-out: %inh 5-HT1A exp_1): 52%; inhibition at 10 µM (human 5-HT1A receptor; read-out: %inh 5-HT1A exp_2): 48%; Ki (bovine factor Xa): 401 µM; inhibition at 10 µM (human 5-HT6 receptor; read-out: 5-HT6 % Inhibition by plate position): 76%; inhibition at 10 µM (human 5-HT6 receptor; read-out: %inh 5-HT6 average): 76%; inhibition at 10 µM (human 5-HT6 receptor; read-out: %inh 5-HT6 corrected*): 76%; inhibition at 10 µM (human 5-HT6 receptor; read-out: %inh 5-HT6 exp_1): 84%; inhibition at 10 µM (human 5-HT6 receptor; read-out: %inh 5-HT6 exp_2): 68%
Nc1nnc(-c2cccs2)[nH]1 [D3] | 0 | -1.67 | 0 | 1.55 | -5 | 0.863 | 0.863 | 0.863 | 1.73 | 0 | 52 | 52 | 52 | 52 | 53 | – | – | – | – | – | Ki (human thrombin): 181 µM
c1ccc(Nc2nncs2)cc1 [D8] | 0 | -12 | 0 | -3.33 | -21 | 0 | -2.41 | 0 | -10 | 5.56 | 1.55 | 1.55 | 1.55 | 9 | -6 | – | – | – | – | – | Ki (bovine factor Xa; [11]): 733 µM
O=C(O)C1CCN(c2ncccn2)CC1 [E9] | 0 | -8.55 | 0 | 3.77 | -21 | 3 | 3 | 3 | 11 | -4.35 | 29 | 29 | 29 | 32 | 26 | – | – | – | – | – | Ki (human thrombin): 76 µM
O=C(c1ccccc1F)N1CCNCC1 [E12] | 0 | -6 | 0 | -4.53 | -8 | 15 | 15 | 15 | 13 | 17 | 17 | 17 | 17 | 12 | 22 | – | – | – | – | – | Ki (bovine factor Xa): 510 µM
O=C(O)c1cnc(-c2ccccc2)s1 [F3] | 0 | -18 | 0 | -6 | -31 | 2.52 | 2.52 | 2.52 | -2.47 | 7.5 | 41 | 41 | 41 | 48 | 34 | – | – | – | – | – | Ki (human thrombin): 271 µM
O=C1CCC(=O)N(c2ccccc2)N1 [H7] | – | – | – | – | – | – | – | – | – | – | – | – | – | – | – | 24 | 27 | 21 | 6 | 7 | %inh 5-HT1A corrected* (human 5-HT1A receptor; [18]): 6%; %inh 5-HT1A exp_2 (human 5-HT1A receptor; 5-HT1A, replicate exp_2): 5.53%; 5-HT6 % Inhibition by plate position (human 5-HT6 receptor; 10 µM): 22%; %inh 5-HT6 average (human 5-HT6 receptor; [19]): 22%; %inh 5-HT6 corrected* (human 5-HT6 receptor; [20]): 22%; %inh 5-HT6 exp_1 (human 5-HT6 receptor; 5-HT6, replicate exp_1): 24%; %inh 5-HT6 exp_2 (human 5-HT6 receptor; 5-HT6, replicate exp_2): 20%
O=C1CC(CSc2ccc(Cl)cc2)=NN1 [H8] | – | – | – | – | – | – | – | – | – | – | – | – | – | – | – | 0 | -1 | -14 | -0.353 | -4 | %inh 5-HT7 average (human 5-HT7b receptor; [21]): -7%; 5-HT1A % Inhibition by plate position (human 5-HT1A receptor; 10 µM): 0%; %inh 5-HT1A exp_2 (human 5-HT1A receptor; 5-HT1A, replicate exp_2): 3.38%; 5-HT6 % Inhibition by plate position (human 5-HT6 receptor; 10 µM): 12%; %inh 5-HT6 average (human 5-HT6 receptor; [19]): 12%; %inh 5-HT6 corrected* (human 5-HT6 receptor; [20]): 12%; %inh 5-HT6 exp_1 (human 5-HT6 receptor; 5-HT6, replicate exp_1): 9%; %inh 5-HT6 exp_2 (human 5-HT6 receptor; 5-HT6, replicate exp_2): 14%
O=C(c1ccccc1)N1CCC(CO)CC1 [H9] | – | – | – | – | – | – | – | – | – | – | – | – | – | – | – | 12 | 11 | 13 | 11 | 15 | %inh 5-HT1A corrected* (human 5-HT1A receptor; [18]): 11%; %inh 5-HT1A exp_2 (human 5-HT1A receptor; 5-HT1A, replicate exp_2): 7%; 5-HT6 % Inhibition by plate position (human 5-HT6 receptor; 10 µM): 32%; %inh 5-HT6 average (human 5-HT6 receptor; [19]): 32%; %inh 5-HT6 corrected* (human 5-HT6 receptor; [20]): 32%; %inh 5-HT6 exp_1 (human 5-HT6 receptor; 5-HT6, replicate exp_1): 29%; %inh 5-HT6 exp_2 (human 5-HT6 receptor; 5-HT6, replicate exp_2): 36%
O=C1CSC(Nc2ccc(F)cc2)=N1 [H10] | – | – | – | – | – | – | – | – | – | – | – | – | – | – | – | 0 | 3.25 | -10 | 12 | 10 | %inh 5-HT7 average (human 5-HT7b receptor; [21]): -3.55%; %inh 5-HT1A corrected* (human 5-HT1A receptor; [18]): 12%; %inh 5-HT1A exp_2 (human 5-HT1A receptor; 5-HT1A, replicate exp_2): 15%; 5-HT6 % Inhibition by plate position (human 5-HT6 receptor; 10 µM): 36%; %inh 5-HT6 average (human 5-HT6 receptor; [19]): 36%; %inh 5-HT6 corrected* (human 5-HT6 receptor; [20]): 36%; %inh 5-HT6 exp_1 (human 5-HT6 receptor; 5-HT6, replicate exp_1): 37%; %inh 5-HT6 exp_2 (human 5-HT6 receptor; 5-HT6, replicate exp_2): 35%
Cc1ccc(CCNc2ccccc2)cn1 [H11] | – | – | – | – | – | – | – | – | – | – | – | – | – | – | – | 0 | -13 | 12 | 5 | 11 | %inh 5-HT7 average (human 5-HT7b receptor; [21]): -0.222%; %inh 5-HT1A corrected* (human 5-HT1A receptor; [18]): 5%; %inh 5-HT1A exp_2 (human 5-HT1A receptor; 5-HT1A, replicate exp_2): -0.501%; 5-HT6 % Inhibition by plate position (human 5-HT6 receptor; 10 µM): 0%; %inh 5-HT6 average (human 5-HT6 receptor; [19]): -0.844%; %inh 5-HT6 corrected* (human 5-HT6 receptor; [20]): 0%; %inh 5-HT6 exp_1 (human 5-HT6 receptor; 5-HT6, replicate exp_1): 7%; %inh 5-HT6 exp_2 (human 5-HT6 receptor; 5-HT6, replicate exp_2): -9%
O=C1NC(=O)/C(=C\c2cccs2)N1 [H12] | 3.77 | 3.77 | 3.77 | 6 | 1.68 | 3.44 | 3.44 | 3.44 | 7 | -0.195 | 32 | 32 | 32 | 31 | 32 | – | – | – | – | – | Ki (bovine factor Xa): 466 µM
